# Test results as given in patent US8952024B2, “Herbicidal pyrimidone derivatives” (E I du Pont de Nemours and Company, priority 2009, dated 2015).
# How the values were obtained:
# Assay in all cases: Test B pre-/postemergence plant response
# Assay type in all cases: in vivo
# [1] = tested on: Surinam grass (Brachiaria decumbens); conditions: Postemergence
# Summary of the method: (§1)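 Steps: sow seed in loam–sand soil and spray preemergence, or grow plants in peat-based medium to 1–4 leaves (2–18 cm) and spray postemergence; formulation is non-phytotoxic solvent plus surfactant; hold in greenhouse 13–15 days; score visually vs controls, 0 = no effect, 100 = complete control.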
# [2] = tested on: large crabgrass (Digitaria sanguinalis); conditions: Postemergence
# Summary of the method: as §1
# [3] = tested on: wild oat (Avena fatua); conditions: Postemergence
# Summary of the method: as §1
# [4] = tested on: ragweed (common ragweed, Ambrosia elatior); conditions: Postemergence
# Summary of the method: as §1
# [5] = tested on: blackgrass (Alopecurus myosuroides); conditions: for Plant response rating, Blackgrass: Postemergence
# Summary of the method: as §1
# [6] = tested on: downy bromegrass (Bromus tectorum); conditions: for Plant response rating, Bromegrass, Downy: Postemergence
# Summary of the method: as §1
# [7] = tested on: Italian ryegrass (Lolium multiflorum); conditions: Postemergence
# Summary of the method: as §1
# [8] = tested on: morningglory (Ipomoea coccinea); conditions: Postemergence
# Summary of the method: as §1
# [9] = tested on: cocklebur (Xanthium strumarium); conditions: Postemergence
# Summary of the method: as §1
# [10] = tested on: woolly cupgrass (Eriochloa villosa); conditions: Postemergence
# Summary of the method: as §1
# [11] = tested on: bermudagrass (Cynodon dactylon); conditions: for Plant response rating, Bermudagrass: Postemergence
# Summary of the method: as §1
# [12] = tested on: kochia (Kochia scoparia); conditions: Postemergence
# Summary of the method: as §1
# [13] = tested on: wheat (Triticum aestivum); conditions: Postemergence
# Summary of the method: as §1
# [14] = 31 g ai/ha, 0 to 100 scale (0 no effect, 100 complete control)
# [15] = 62 g ai/ha, postemergence, 0 is no effect, 100 is complete control, 13 to 15 days
structure (smiles),measurement,setting,value
Cc1ccccc1-n1c(-c2cc(F)cc(F)c2)ncc(C(=O)C2=C(O)CCCC2=O)c1=O [Compound 159],"Plant response rating, Surinam Grass","[1]; 8 g ai/ha, 0 to 100 scale",65
same,"Plant response rating, Surinam Grass","[1]; 16 g ai/ha, 0 to 100 scale",65
same,"Plant response rating, Surinam Grass",[1]; [14],75
same,"Plant response rating, Crabgrass, Large","[2]; 8 g ai/ha, 0 to 100 scale",65
same,"Plant response rating, Crabgrass, Large","[2]; 16 g ai/ha, 0 to 100 scale",75
same,"Plant response rating, Crabgrass, Large",[2]; [14],80
same,"Plant response rating, Oat, Wild","[3]; 8 g ai/ha, 0 to 100 scale",0
same,"Plant response rating, Oat, Wild","[3]; 16 g ai/ha, 0 to 100 scale",35
same,"Plant response rating, Oat, Wild",[3]; [14],60
same,"Plant response rating, Ragweed","[4]; 8 g ai/ha, 0 to 100 scale",65
same,"Plant response rating, Ragweed","[4]; 16 g ai/ha, 0 to 100 scale",80
same,"Plant response rating, Ragweed",[4]; [14],90
same,"Plant response rating, Blackgrass","[5]; 8 g ai/ha, 0 to 100 scale",0
same,"Plant response rating, Blackgrass","[5]; 16 g ai/ha, 0 to 100 scale",5
same,Blackgrass plant response rating (0 to 100 scale),[5]; [15],25
same,"Plant response rating, Blackgrass",[5]; [14],20
same,"Plant response rating, Bromegrass, Downy","[6]; 8 g ai/ha, 0 to 100 scale",15
same,"Plant response rating, Bromegrass, Downy","[6]; 16 g ai/ha, 0 to 100 scale",15
same,"Bromegrass, Downy plant response rating (0 to 100 scale)",[6]; [15],50
same,"Plant response rating, Bromegrass, Downy",[6]; [14],50
same,"Plant response rating, Ryegrass, Italian","[7]; 8 g ai/ha, 0 to 100 scale",0
same,"Plant response rating, Ryegrass, Italian","[7]; 16 g ai/ha, 0 to 100 scale",0
same,"Plant response rating, Ryegrass, Italian",[7]; [14],30
same,"Plant response rating, Morningglory","[8]; 8 g ai/ha, 0 to 100 scale",0
same,"Plant response rating, Morningglory","[8]; 16 g ai/ha, 0 to 100 scale",10
same,"Plant response rating, Morningglory",[8]; [14],60
same,"Plant response rating, Cocklebur","[9]; 8 g ai/ha, 0 to 100 scale",75
same,"Plant response rating, Cocklebur","[9]; 16 g ai/ha, 0 to 100 scale",80
same,"Plant response rating, Cocklebur",[9]; [14],95
same,"Plant response rating, Cupgrass, Woolly","[10]; 8 g ai/ha, 0 to 100 scale",60
same,"Plant response rating, Cupgrass, Woolly","[10]; 16 g ai/ha, 0 to 100 scale",65
same,"Plant response rating, Cupgrass, Woolly",[10]; [14],70
same,"Plant response rating, Bermudagrass","[11]; 8 g ai/ha, 0 to 100 scale",70
same,"Plant response rating, Bermudagrass","[11]; 16 g ai/ha, 0 to 100 scale",80
same,Bermudagrass plant response rating (0 to 100 scale),[11]; [15],100
same,"Plant response rating, Bermudagrass",[11]; [14],95
same,"Plant response rating, Kochia","[12]; 8 g ai/ha, 0 to 100 scale",20
same,"Plant response rating, Kochia","[12]; 16 g ai/ha, 0 to 100 scale",20
same,"Plant response rating, Kochia",[12]; [14],40
same,"Plant response rating, Wheat","[13]; 8 g ai/ha, 0 to 100 scale",10
same,"Plant response rating, Wheat","[13]; 16 g ai/ha, 0 to 100 scale",35
same,"Plant response rating, Wheat",[13]; [14],40
